From patent US6914045B2, “Glycopeptide antibiotics” (Wyeth Holdings Corporation, priority 2001, dated 2005)
≈ marks a conversion by molar mass, not a printed value.

How the values were obtained:
Test in all cases: in vitro antibacterial evaluation, MIC by broth dilution
Assay type in all cases: cell-based
Enterococcus sp. = details: broth dilution, 18 hours at 35° C.; for MIC Enterococcus faecalis (ATCC 29212): strain ATCC 29212; for MIC Enterococcus faecalis (GC 2242): strain GC 2242; for MIC Enterococcus faecium (GC 2243): strain GC 2243; for MIC Enterococcus faecalis (GC 2691): strain GC 2691; for MIC Enterococcus faecalis (GC 3059): strain GC 3059; for MIC Enterococcus faecalis (GC 4552): strain GC 4552; for MIC Enterococcus faecalis (GC 4553): strain GC 4553; for MIC Enterococcus faecalis (GC 4554): strain GC 4554; for MIC Enterococcus faecium (GC 4556): strain GC 4556; for MIC Enterococcus faecium (GC 4557): strain GC 4557; for MIC Enterococcus avium (GC 4558): strain GC 4558; for MIC Enterococcus faecalis (GC 6189): strain GC 6189
In short: (§1)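 Inoculum 5×10^5 CFU/mL; concentrations 64 to 0.06 μg/mL; MIC defined as lowest inhibitory level. Conducted by broth dilution under NCCLS guidelines.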

Escherichia coli = test system: Escherichia coli
In short: as §1

Staphylococcus sp. = details: broth dilution, 18 hours at 35° C.; for MIC Staphylococcus aureus (GC 1131): strain GC 1131
In short: as §1

Streptococcus sp. = details: broth dilution, 18 hours at 35° C.; for MIC Streptococcus pneumoniae (ATCC 6301): strain ATCC 6301; for MIC Streptococcus pneumoniae (GC 1894): strain GC 1894; for MIC Streptococcus pyogenes (GC 4563): strain GC 4563; for MIC Streptococcus agalactiae (GC 4564): strain GC 4564; for MIC Streptococcus pneumoniae (GC 4565): strain GC 4565
In short: as §1

MIC Enterococcus faecalis (ATCC 29212) (Enterococcus sp.; inoculum 5×10^5 CFU/mL): >64 µg/mL | MIC Enterococcus faecalis (GC 2242) (Enterococcus sp.; inoculum 5×10^5 CFU/mL): >64 µg/mL | MIC Enterococcus faecium (GC 2243) (Enterococcus sp.; inoculum 5×10^5 CFU/mL): >64 µg/mL | MIC Enterococcus faecalis (GC 2691) (Enterococcus sp.; inoculum 5×10^5 CFU/mL): >64 µg/mL | MIC Enterococcus faecalis (GC 3059) (Enterococcus sp.; inoculum 5×10^5 CFU/mL): >64 µg/mL | MIC Enterococcus faecalis (GC 4552) (Enterococcus sp.; inoculum 5×10^5 CFU/mL): >64 µg/mL | MIC Enterococcus faecalis (GC 4553) (Enterococcus sp.; inoculum 5×10^5 CFU/mL): >64 µg/mL | MIC Enterococcus faecalis (GC 4554) (Enterococcus sp.; inoculum 5×10^5 CFU/mL): >64 µg/mL | MIC Enterococcus faecium (GC 4556) (Enterococcus sp.; inoculum 5×10^5 CFU/mL): >64 µg/mL | MIC Enterococcus faecium (GC 4557) (Enterococcus sp.; inoculum 5×10^5 CFU/mL): >64 µg/mL | MIC Enterococcus avium (GC 4558) (Enterococcus sp.; inoculum 5×10^5 CFU/mL): >64 µg/mL | MIC Enterococcus faecalis (GC 6189) (Enterococcus sp.; inoculum 5×10^5 CFU/mL): >64 µg/mL | MIC Enterococcus faecalis (ATCC 29212) (Enterococcus sp.): >64 µg/mL | MIC Enterococcus faecalis (GC 2242) (Enterococcus sp.): >64 µg/mL | MIC Enterococcus faecium (GC 2243) (Enterococcus sp.): >64 µg/mL | MIC Enterococcus faecalis (GC 2691) (Enterococcus sp.): >64 µg/mL | MIC Enterococcus faecalis (GC 3059) (Enterococcus sp.): >64 µg/mL | MIC Enterococcus faecalis (GC 4552) (Enterococcus sp.): >64 µg/mL | MIC Enterococcus faecalis (GC 4553) (Enterococcus sp.): >64 µg/mL | MIC Enterococcus faecalis (GC 4554) (Enterococcus sp.): >64 µg/mL | MIC Enterococcus faecium (GC 4556) (Enterococcus sp.): >64 µg/mL | MIC Enterococcus faecium (GC 4557) (Enterococcus sp.): >64 µg/mL | MIC Enterococcus avium (GC 4558) (Enterococcus sp.): >64 µg/mL | MIC Enterococcus faecalis (GC 6189) (Enterococcus sp.): >64 µg/mL | MIC Escherichia coli (ATCC 25922) (Escherichia coli; strain ATCC 25922, 18 hours at 35° C.): >64 µg/mL | MIC Escherichia coli (GC 4559) (Escherichia coli; strain GC 4559, 18 hours at 35° C.): >64 µg/mL | MIC Escherichia coli (GC 4560) (Escherichia coli; strain GC 4560, 18 hours at 35° C.): >64 µg/mL | MIC Staphylococcus aureus (GC 1131) (Staphylococcus sp.; inoculum 5×10^5 CFU/mL): >64 µg/mL | MIC Staphylococcus aureus (ATCC 29213) (Staphylococcus sp.; strain ATCC 29213): >64 µg/mL | MIC Staphylococcus aureus (GC 1131) (Staphylococcus sp.): >64 µg/mL | MIC Staphylococcus aureus (GC 3051) (Staphylococcus sp.; strain GC 3051): >64 µg/mL | MIC Staphylococcus aureus (GC 3053) (Staphylococcus sp.; strain GC 3053): >64 µg/mL | MIC Staphylococcus aureus (GC 4541) (Staphylococcus sp.; strain GC 4541): >64 µg/mL | MIC Staphylococcus aureus (GC 4542) (Staphylococcus sp.; strain GC 4542): >64 µg/mL | MIC Staphylococcus aureus (GC 4544) (Staphylococcus sp.; strain GC 4544): >64 µg/mL | MIC Staphylococcus aureus (GC 4545) (Staphylococcus sp.; strain GC 4545): >64 µg/mL | MIC Staphylococcus aureus-SMITH (GC 4543) (Staphylococcus sp.; strain GC 4543): >64 µg/mL | MIC Coagulase Negative Staphylococcus (GC 4547) (Staphylococcus sp.; strain GC 4547): >64 µg/mL | MIC Coagulase Negative Staphylococcus (GC 4548) (Staphylococcus sp.; strain GC 4548): >64 µg/mL | MIC Coagulase Negative Staphylococcus (GC 4549) (Staphylococcus sp.; strain GC 4549): >64 µg/mL | MIC Coagulase Negative Staphylococcus (GC 4551) (Staphylococcus sp.; strain GC 4551): >64 µg/mL | MIC Coagulase Negative Staphylococcus (GC 6257) (Staphylococcus sp.; strain GC 6257): >64 µg/mL | MIC Streptococcus pneumoniae (ATCC 6301) (Streptococcus sp.; inoculum 5×10^5 CFU/mL): 4 µg/mL (≈ 2.61 µM) | MIC Streptococcus pneumoniae (GC 1894) (Streptococcus sp.; inoculum 5×10^5 CFU/mL): 8 µg/mL (≈ 5.21 µM) | MIC Streptococcus pyogenes (GC 4563) (Streptococcus sp.; inoculum 5×10^5 CFU/mL): 64 µg/mL (≈ 41.7 µM) | MIC Streptococcus agalactiae (GC 4564) (Streptococcus sp.; inoculum 5×10^5 CFU/mL): 32 µg/mL (≈ 20.9 µM) | MIC Streptococcus pneumoniae (GC 4565) (Streptococcus sp.; inoculum 5×10^5 CFU/mL): 8 µg/mL (≈ 5.21 µM) | MIC Streptococcus pneumoniae (ATCC 6301) (Streptococcus sp.): 4 µg/mL (≈ 2.61 µM) | MIC Streptococcus pneumoniae (GC 1894) (Streptococcus sp.): 8 µg/mL (≈ 5.21 µM) | MIC Streptococcus pyogenes (GC 4563) (Streptococcus sp.): 64 µg/mL (≈ 41.7 µM) | MIC Streptococcus agalactiae (GC 4564) (Streptococcus sp.): 32 µg/mL (≈ 20.9 µM) | MIC Streptococcus pneumoniae (GC 4565) (Streptococcus sp.): 8 µg/mL (≈ 5.21 µM)
SMILES: CC(c1ccccc1)C1NC(=O)CNC(=O)C(CO)NC(=O)C(C(O)C2CNC(=N)N2C2OC(CO)C(O)C(O)C2O)NC(=O)C(C(O)C2CNC(=N)N2)NC(=O)C(Cc2ccc(OC3OC(CO)C(OC4OC5COC(c6cccc(OCc7ccc([N+](=O)[O-])cc7)c6)OC5C(O)C4O)C(O)C3O)cc2)NC1=O (centres unmarked) [Example 182]
MIC Staphylococcus haemolyticus (GC 4546) (Staphylococcus sp.; strain GC 4546): >64 µg/mL
